Some targets named below: Histamine H1 receptor (Homo sapiens, UniProt P35367); Vasopressin V1a receptor (Homo sapiens, UniProt P37288); Histamine H3 receptor (Homo sapiens, UniProt Q9Y5N1).
For assay [1], the target named is Neuronal acetylcholine receptor subunit alpha-4 (Homo sapiens, UniProt P43681).
For assay [2], the target named is Voltage-dependent L-type calcium channel subunit alpha-1C (Rattus norvegicus, UniProt P22002). It is filed as functional.
Assay [3] deals with T1, Cholecystokinin receptor type A (Homo sapiens, UniProt P32238).
T1 sequence (P32238 whole entry): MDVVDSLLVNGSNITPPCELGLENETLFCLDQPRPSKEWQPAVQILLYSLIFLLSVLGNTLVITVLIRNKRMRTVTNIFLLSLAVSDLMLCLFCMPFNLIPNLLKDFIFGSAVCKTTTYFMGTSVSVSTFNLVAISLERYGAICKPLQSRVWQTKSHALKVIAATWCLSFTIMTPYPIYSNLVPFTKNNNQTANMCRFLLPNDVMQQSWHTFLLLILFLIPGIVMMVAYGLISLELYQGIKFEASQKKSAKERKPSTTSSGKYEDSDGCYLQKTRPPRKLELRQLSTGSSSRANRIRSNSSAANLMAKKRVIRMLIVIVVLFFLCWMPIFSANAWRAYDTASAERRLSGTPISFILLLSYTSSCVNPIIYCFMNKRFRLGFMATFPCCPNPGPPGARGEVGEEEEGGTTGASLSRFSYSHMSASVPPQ

For assay [4], the target named is T2, Alpha-2A adrenergic receptor (Homo sapiens, UniProt P08913).
T2 sequence (P08913 whole entry): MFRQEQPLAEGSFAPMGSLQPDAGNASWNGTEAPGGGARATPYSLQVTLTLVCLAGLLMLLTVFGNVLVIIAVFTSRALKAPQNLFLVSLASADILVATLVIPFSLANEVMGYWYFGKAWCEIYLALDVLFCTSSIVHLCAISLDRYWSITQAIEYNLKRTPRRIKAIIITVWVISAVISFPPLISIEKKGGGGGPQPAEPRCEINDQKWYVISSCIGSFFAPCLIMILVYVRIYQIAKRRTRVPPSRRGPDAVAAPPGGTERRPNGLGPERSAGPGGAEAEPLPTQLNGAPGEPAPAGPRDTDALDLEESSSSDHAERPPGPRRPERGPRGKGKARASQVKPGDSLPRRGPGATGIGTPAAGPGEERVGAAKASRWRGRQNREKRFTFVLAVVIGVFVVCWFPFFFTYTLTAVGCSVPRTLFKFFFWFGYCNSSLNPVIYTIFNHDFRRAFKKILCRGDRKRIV
It counts as functional, cell-based.

Assay [5] addresses T3, Equilibrative nucleoside transporter 1 (Homo sapiens, UniProt Q99808).
T3 sequence (Q99808 whole entry): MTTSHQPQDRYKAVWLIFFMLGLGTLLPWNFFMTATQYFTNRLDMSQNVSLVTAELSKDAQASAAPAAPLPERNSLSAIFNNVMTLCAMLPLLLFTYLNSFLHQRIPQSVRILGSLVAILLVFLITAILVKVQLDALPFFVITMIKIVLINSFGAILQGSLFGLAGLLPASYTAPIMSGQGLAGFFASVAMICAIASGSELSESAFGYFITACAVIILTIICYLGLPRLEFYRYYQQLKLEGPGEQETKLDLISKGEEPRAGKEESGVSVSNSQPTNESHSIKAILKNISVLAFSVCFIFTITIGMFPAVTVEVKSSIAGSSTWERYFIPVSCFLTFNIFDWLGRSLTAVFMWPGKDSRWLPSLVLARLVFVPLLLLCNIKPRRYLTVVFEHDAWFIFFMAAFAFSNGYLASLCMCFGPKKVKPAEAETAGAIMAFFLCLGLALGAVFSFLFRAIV

The target of assay [6] is Glutamate receptor ionotropic, NMDA 1 (Rattus norvegicus, UniProt P35439).
The target of a further assay is T4, B2 bradykinin receptor (Homo sapiens, UniProt P30411).
T4 sequence (P30411 whole entry): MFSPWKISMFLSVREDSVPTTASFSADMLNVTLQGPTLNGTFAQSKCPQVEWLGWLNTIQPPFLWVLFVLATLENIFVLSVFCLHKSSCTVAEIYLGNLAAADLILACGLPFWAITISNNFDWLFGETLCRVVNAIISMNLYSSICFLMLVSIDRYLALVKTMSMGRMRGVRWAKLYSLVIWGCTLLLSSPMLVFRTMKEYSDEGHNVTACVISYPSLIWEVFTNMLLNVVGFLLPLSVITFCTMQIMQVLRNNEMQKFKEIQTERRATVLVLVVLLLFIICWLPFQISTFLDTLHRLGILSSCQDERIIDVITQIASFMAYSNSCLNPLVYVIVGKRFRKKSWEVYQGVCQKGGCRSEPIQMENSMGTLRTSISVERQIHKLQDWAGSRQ

The target in assay [7] is cGMP-inhibited 3',5'-cyclic phosphodiesterase 3A (Homo sapiens, UniProt Q14432). It counts as functional.
The target of the next assay is T5, Adenosine receptor A1 (Homo sapiens, UniProt P30542).
T5 sequence (P30542 whole entry): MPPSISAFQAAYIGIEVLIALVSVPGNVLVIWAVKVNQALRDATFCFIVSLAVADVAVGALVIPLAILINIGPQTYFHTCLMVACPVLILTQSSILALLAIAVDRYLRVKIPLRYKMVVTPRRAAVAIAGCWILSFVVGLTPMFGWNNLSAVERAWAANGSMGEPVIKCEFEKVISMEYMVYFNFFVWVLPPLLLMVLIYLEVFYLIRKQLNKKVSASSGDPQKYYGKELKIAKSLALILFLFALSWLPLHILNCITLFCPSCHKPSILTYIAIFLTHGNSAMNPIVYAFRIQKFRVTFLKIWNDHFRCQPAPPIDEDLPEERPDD

Assay [8] concerns the target 5-hydroxytryptamine receptor 2B (Homo sapiens, UniProt P41595). It counts as functional, cell-based.

Experimental findings from ChEMBL document CHEMBL5291721, “A preclinical secondary pharmacology resource illuminates target-adverse drug reaction associations of marketed drugs” (Nat Commun, 2023) are described below.

Bounds are passed on as bounds.
Also: assay procedure not described here.

Neuronal acetylcholine receptor subunit alpha-4, sequence (P43681 whole entry): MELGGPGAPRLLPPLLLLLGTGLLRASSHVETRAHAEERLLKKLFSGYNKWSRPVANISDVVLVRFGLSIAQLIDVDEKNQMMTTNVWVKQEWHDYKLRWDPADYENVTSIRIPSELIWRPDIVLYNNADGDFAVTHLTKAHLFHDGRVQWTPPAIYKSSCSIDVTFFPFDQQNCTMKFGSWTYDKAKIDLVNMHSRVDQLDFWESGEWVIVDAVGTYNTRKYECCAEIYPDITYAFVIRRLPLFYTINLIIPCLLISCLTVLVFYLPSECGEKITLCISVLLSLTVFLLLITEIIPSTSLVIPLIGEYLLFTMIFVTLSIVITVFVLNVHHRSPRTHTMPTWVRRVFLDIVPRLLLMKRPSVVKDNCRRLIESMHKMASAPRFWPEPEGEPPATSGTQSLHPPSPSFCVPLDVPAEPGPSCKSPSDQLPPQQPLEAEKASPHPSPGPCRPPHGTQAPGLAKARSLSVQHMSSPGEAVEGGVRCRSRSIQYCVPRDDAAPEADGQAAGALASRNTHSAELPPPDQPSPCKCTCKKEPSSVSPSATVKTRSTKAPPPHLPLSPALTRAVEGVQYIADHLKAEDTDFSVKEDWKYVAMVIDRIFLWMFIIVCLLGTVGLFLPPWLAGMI
cGMP-inhibited 3',5'-cyclic phosphodiesterase 3A, sequence (Q14432 whole entry): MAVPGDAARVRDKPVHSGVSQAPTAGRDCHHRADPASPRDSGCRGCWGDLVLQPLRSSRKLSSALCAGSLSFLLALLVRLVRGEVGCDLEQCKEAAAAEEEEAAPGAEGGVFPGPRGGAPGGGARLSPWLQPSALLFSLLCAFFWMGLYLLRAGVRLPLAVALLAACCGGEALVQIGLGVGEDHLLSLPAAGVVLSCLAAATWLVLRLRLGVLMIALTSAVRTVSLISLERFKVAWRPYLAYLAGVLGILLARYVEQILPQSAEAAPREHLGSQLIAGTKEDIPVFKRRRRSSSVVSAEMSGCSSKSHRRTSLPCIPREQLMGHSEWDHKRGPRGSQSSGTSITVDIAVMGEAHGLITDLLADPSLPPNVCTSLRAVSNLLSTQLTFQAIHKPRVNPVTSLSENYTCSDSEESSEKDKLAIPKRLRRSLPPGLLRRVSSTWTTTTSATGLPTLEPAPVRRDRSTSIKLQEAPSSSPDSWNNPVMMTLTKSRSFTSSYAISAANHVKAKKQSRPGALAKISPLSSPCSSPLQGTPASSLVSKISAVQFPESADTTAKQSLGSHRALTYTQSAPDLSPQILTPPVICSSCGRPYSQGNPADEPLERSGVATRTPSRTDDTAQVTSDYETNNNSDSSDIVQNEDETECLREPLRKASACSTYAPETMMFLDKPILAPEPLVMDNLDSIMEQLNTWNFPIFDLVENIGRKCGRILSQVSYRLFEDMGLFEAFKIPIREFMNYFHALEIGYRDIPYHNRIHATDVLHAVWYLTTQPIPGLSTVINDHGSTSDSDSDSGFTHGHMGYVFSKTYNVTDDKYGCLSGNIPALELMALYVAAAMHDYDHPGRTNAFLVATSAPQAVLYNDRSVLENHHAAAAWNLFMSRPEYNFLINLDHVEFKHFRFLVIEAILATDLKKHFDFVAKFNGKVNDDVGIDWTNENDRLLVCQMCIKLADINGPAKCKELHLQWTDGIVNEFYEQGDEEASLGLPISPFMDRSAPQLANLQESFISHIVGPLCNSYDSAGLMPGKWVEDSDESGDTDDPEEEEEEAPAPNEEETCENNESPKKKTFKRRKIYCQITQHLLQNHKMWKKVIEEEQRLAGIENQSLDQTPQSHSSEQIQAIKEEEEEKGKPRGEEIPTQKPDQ
Vasopressin V1a receptor, sequence (P37288 whole entry): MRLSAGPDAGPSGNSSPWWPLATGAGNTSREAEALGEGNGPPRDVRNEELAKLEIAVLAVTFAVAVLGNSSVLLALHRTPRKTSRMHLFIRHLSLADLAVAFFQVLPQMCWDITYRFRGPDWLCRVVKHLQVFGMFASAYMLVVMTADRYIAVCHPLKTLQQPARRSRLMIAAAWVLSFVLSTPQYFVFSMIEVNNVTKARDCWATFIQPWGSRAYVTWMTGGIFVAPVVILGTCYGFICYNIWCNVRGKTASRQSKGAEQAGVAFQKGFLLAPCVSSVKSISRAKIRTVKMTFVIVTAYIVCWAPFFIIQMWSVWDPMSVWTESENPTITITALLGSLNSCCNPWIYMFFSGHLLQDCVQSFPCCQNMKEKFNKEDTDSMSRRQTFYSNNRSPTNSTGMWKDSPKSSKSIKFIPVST
Voltage-dependent L-type calcium channel subunit alpha-1C, sequence (P22002 whole entry): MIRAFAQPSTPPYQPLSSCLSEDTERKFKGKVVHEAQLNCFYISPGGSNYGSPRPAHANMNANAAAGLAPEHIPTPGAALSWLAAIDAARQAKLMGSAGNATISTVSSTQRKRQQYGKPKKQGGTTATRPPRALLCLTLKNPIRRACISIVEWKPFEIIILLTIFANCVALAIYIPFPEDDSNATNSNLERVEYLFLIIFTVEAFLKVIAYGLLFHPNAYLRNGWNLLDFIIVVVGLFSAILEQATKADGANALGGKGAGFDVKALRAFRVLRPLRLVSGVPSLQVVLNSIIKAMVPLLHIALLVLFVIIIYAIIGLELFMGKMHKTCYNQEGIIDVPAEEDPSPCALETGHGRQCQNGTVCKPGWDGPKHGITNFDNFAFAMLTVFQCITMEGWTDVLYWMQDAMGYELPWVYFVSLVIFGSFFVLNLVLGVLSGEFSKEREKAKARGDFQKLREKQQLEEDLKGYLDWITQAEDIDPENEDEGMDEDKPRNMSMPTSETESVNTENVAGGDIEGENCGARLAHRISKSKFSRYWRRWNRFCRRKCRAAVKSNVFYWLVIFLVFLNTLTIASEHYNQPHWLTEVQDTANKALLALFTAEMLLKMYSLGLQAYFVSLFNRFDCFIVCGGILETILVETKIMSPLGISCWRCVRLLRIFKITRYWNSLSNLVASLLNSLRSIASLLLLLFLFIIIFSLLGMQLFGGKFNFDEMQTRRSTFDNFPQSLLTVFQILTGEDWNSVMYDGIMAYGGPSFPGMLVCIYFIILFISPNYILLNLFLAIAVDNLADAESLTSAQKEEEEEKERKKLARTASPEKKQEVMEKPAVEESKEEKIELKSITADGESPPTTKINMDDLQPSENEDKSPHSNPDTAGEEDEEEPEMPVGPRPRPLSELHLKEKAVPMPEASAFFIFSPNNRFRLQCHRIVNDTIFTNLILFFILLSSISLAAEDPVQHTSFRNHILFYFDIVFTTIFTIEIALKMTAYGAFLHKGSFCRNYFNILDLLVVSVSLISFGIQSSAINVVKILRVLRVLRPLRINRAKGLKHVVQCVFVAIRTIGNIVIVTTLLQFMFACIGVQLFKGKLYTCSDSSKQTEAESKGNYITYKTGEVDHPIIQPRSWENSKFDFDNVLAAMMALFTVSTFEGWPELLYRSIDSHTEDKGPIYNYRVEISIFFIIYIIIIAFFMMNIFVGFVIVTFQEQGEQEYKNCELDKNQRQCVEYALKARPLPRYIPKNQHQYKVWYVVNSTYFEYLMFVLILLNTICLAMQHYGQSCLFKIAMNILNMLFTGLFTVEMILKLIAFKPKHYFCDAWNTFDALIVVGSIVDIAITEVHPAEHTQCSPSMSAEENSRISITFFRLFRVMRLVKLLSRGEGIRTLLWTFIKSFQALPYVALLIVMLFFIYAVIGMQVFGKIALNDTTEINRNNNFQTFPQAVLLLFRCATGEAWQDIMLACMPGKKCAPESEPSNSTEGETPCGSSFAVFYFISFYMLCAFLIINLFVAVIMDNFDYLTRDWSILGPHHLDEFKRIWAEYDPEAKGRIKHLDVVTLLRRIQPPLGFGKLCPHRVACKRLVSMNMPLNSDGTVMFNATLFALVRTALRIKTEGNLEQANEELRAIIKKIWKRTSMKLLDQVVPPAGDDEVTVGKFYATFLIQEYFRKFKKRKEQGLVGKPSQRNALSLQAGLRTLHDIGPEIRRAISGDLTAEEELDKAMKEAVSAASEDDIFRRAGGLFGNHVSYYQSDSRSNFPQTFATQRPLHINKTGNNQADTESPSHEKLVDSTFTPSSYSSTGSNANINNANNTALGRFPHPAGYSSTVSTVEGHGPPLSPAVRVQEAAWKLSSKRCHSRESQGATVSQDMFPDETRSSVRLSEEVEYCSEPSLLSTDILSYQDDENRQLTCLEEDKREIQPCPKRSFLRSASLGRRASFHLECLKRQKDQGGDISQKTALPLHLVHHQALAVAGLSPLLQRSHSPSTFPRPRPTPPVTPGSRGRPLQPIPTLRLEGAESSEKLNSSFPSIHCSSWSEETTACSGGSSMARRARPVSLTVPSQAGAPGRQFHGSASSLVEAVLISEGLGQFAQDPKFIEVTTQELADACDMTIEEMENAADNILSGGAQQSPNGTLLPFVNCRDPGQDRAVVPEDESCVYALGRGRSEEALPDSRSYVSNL
Histamine H3 receptor, sequence (Q9Y5N1 whole entry): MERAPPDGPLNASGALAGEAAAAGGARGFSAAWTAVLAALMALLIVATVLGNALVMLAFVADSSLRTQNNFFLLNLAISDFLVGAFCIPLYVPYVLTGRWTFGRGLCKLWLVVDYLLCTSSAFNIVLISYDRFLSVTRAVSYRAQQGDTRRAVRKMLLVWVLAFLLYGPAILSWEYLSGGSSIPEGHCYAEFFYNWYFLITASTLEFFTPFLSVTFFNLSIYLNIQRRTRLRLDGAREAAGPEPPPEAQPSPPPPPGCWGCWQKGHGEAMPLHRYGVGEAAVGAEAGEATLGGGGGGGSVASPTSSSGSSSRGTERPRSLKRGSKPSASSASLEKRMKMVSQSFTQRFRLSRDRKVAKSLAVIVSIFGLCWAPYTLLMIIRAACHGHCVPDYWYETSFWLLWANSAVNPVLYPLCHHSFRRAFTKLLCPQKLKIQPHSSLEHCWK

With `CC(=O)SC[C@@H](C)C(=O)N1CCC[C@H]1C(=O)N[C@@H](Cc1ccccc1)C(=O)O`, the concentration at half-maximal activity (AC50) (at Histamine H1 receptor; in assay [1]; in assay [2]; on Vasopressin V1a receptor; in assay [3]; in assay [4]) was greater than 30 µM throughout. The half-maximal activity concentration (AC50) (in [5]; in [6]; at B2 bradykinin receptor; in [7]; at Adenosine receptor A1; in [8]) was greater than 30 µM in each case. On Histamine H3 receptor, the AC50 was greater than 30 µM.
`C[N@+]1(CCF)[C@@H]2CC[C@H]1C[C@@H](OC(=O)C(O)(c1ccccc1)c1ccccc1)C2`: the half-maximal activity concentration (AC50) on Histamine H1 receptor was 15 µM; in assay [1], greater than 30 µM; in [2], greater than 30 µM; on Vasopressin V1a receptor, greater than 30 µM; in assay [3], greater than 30 µM; in [4] it was greater than 30 µM. The AC50 (in assay [5]; in assay [6]; at B2 bradykinin receptor; in assay [7]; at Adenosine receptor A1; in assay [8]) was greater than 30 µM in each case. On Histamine H3 receptor, the AC50 was greater than 30 µM.
On to `CC(=O)O[C@H](CC(=O)[O-])C[N+](C)(C)C` [ACETYLCARNITINE], for which the half-maximal activity concentration (AC50) is 5.2 µM on Histamine H1 receptor; greater than 30 µM in [1]; greater than 30 µM in assay [2]; greater than 30 µM at Vasopressin V1a receptor; greater than 30 µM in [3]; greater than 30 µM in [4]. The concentration at half-maximal activity (AC50) (in assay [5]; in assay [6]; on B2 bradykinin receptor; in assay [7]; on Adenosine receptor A1; in assay [8]) was greater than 30 µM each time. For the same compound, the half-maximal activity concentration (AC50) on Histamine H3 receptor was greater than 30 µM.
As for `Cn1c(=O)cc(N2CCC[C@@H](N)C2)n(Cc2ccccc2C#N)c1=O` [ALOGLIPTIN], the AC50 at Histamine H1 receptor was greater than 10 µM; in assay [1] it was greater than 10 µM; in [2], greater than 10 µM; on Vasopressin V1a receptor it was greater than 10 µM; in [3], greater than 30 µM; in assay [5], greater than 30 µM. The AC50 in assay [6] was greater than 10 µM; on B2 bradykinin receptor it was greater than 30 µM; in [7], greater than 30 µM; at Adenosine receptor A1, greater than 30 µM; on Histamine H3 receptor, greater than 10 µM.
Take `O=C1CN=C(c2ccccn2)c2cc(Br)ccc2N1` [BROMAZEPAM]: the concentration at half-maximal activity (AC50) (on Histamine H1 receptor; in assay [1]; in assay [2]; on Vasopressin V1a receptor; in [3]; in [4]) was greater than 10 µM throughout. Moreover, the half-maximal activity concentration (AC50) was greater than 10 µM in assay [5]; greater than 10 µM in assay [6]; greater than 10 µM on B2 bradykinin receptor; greater than 30 µM in assay [7]; greater than 10 µM on Adenosine receptor A1; greater than 10 µM in [8].
As for `CC(=O)[C@@]1(O)CC[C@H]2[C@@H]3C=C(Cl)C4=CC(=O)[C@@H]5C[C@@H]5[C@]4(C)[C@H]3CC[C@@]21C` [CYPROTERONE], the AC50 (on Histamine H1 receptor; in assay [1]; in assay [2]; on Vasopressin V1a receptor; in assay [3]; in assay [4]) was greater than 10 µM each time. Further, the AC50 is greater than 10 µM in assay [5]; greater than 10 µM in assay [6]; greater than 10 µM on B2 bradykinin receptor; 16 µM in assay [7]; greater than 10 µM on Adenosine receptor A1; greater than 10 µM in [8].
Turning to `C/C(=C\C(=O)OCCCCCCCCC(=O)O)C[C@@H]1OC[C@H](C[C@@H]2O[C@H]2[C@@H](C)[C@H](C)O)[C@@H](O)[C@H]1O` [MUPIROCIN], the AC50 at Histamine H1 receptor is greater than 10 µM; in [1] it was greater than 10 µM; in assay [2], greater than 10 µM; in assay [3], greater than 10 µM; in assay [4], greater than 10 µM; in [5], greater than 30 µM. The concentration at half-maximal activity (AC50) in assay [6] is greater than 10 µM; at B2 bradykinin receptor it was greater than 10 µM; in assay [7] it was greater than 30 µM; on Adenosine receptor A1 it was greater than 10 µM; in [8], greater than 10 µM; on Histamine H3 receptor, greater than 10 µM.
For `C#CCOc1ccc(N)cc1C(=O)NCCCC` [PARSALMIDE], the concentration at half-maximal activity (AC50) (at Histamine H1 receptor; in assay [1]; in assay [2]; at Vasopressin V1a receptor; in assay [3]; in assay [4]) was greater than 30 µM each time. The concentration at half-maximal activity (AC50) (in assay [6]; at B2 bradykinin receptor; in assay [7]; at Adenosine receptor A1; in [8]; on Histamine H3 receptor) was greater than 30 µM each time.
For the compound `OCc1cc(C(O)CNCCCCCCOCCCCc2ccccc2)ccc1O` (configuration not stated) [SALMETEROL], the AC50 was greater than 10 µM at Histamine H1 receptor; greater than 10 µM in assay [1]; greater than 10 µM in assay [2]; greater than 30 µM in assay [3]; greater than 10 µM in assay [4]; greater than 30 µM in assay [5]. Also, the half-maximal activity concentration (AC50) in [6] was greater than 10 µM; on B2 bradykinin receptor, greater than 30 µM; in [7], greater than 30 µM; at Adenosine receptor A1 it was greater than 30 µM; in assay [8] it was greater than 10 µM; at Histamine H3 receptor it was greater than 10 µM.
`CCC(COC(=O)c1cc(OC)c(OC)c(OC)c1)(c1ccccc1)N(C)C` (configuration not stated) [TRIMEBUTINE]: the concentration at half-maximal activity (AC50) on Histamine H1 receptor is greater than 30 µM; in assay [1] it was 15 µM; in assay [2] it was 21 µM; on Vasopressin V1a receptor, greater than 30 µM; in [3] it was greater than 30 µM; in [4] it was greater than 30 µM. Also, the concentration at half-maximal activity (AC50) (in assay [6]; at B2 bradykinin receptor; in assay [7]; on Adenosine receptor A1; in [8]; on Histamine H3 receptor) was greater than 30 µM throughout.

The term AC50 denotes the concentration giving half of the maximal activity seen.
